Test results reported in PubChem BioAssay (NCI).
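Each compound was tested at five concentrations against cells in 96-well plates for 48 hours. GI50 = concentration required for 50% inhibition of growth. The concentration for full growth arrest is given as TGI.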

Columns and labels:
Test in all cases: NCI anticancer screen, dose series, 48 h
TK-10 renal = system: TK-10 renal
SF-268 CNS = system: SF-268 CNS
K-562 leukemia = system: K-562 leukemia
SNB-19 CNS = system: SNB-19 CNS
SF-295 CNS = system: SF-295 CNS
NCI-H23 lung = system: NCI-H23 lung
OVCAR-5 ovarian = system: OVCAR-5 ovarian
MCF7 breast = system: MCF7 breast
SK-OV-3 ovarian = system: SK-OV-3 ovarian

Row | Structure (SMILES) | TGI (TK-10 renal) [µM] | TGI (SF-268 CNS) [µM] | TGI (K-562 leukemia) [µM] | TGI (SNB-19 CNS) [µM] | TGI (SF-295 CNS) [µM] | TGI (NCI-H23 lung) [µM] | TGI (OVCAR-5 ovarian) [µM] | TGI (MCF7 breast) [µM] | TGI (SK-OV-3 ovarian) [µM] | GI50 (TK-10 renal) [µM] | GI50 (SF-268 CNS) [µM] | GI50 (K-562 leukemia) [µM] | GI50 (SNB-19 CNS) [µM] | GI50 (SF-295 CNS) [µM] | GI50 (NCI-H23 lung) [µM] | GI50 (OVCAR-5 ovarian) [µM] | GI50 (SK-OV-3 ovarian) [µM] | GI50 (MCF7 breast) [µM]
1 | O=C(O)c1nc2ccc(C(F)(F)F)cc2nc1Nc1ccc(Cl)c(Cl)c1 | > 100 | 21.9 | 16.3 | 10.9 | 17 | 19 | 28.9 | 66.7 |  |  |  |  |  |  |  |  |  | 
2 | O=c1[nH]nc(-c2ccccc2)n1/N=C/c1cccc([N+](=O)[O-])c1 | > 100 | > 100 | > 100 | > 100 | > 100 | > 100 | > 100 | > 100 | > 100 |  |  |  |  |  |  |  |  | 
3 | CC(=O)O[C@H]1CC[C@@]2(C)C(=CC[C@@H]3[C@@H]2CC[C@]2(C)c4c(n[nH]c4C)C[C@@H]32)C1 | 34.2 | 48.7 | > 100 | 42.3 | 37.2 | 34.5 | 31.1 | 24.2 | 46.1 |  |  |  |  |  |  |  |  | 
4 | Nc1nc2ccc(Sc3ccc4nc(N)[nH]c(=O)c4c3)cc2c(=O)[nH]1 | > 100 | > 100 | > 100 | > 100 | > 100 | > 100 | > 100 | > 100 | > 100 |  |  |  |  |  |  |  |  | 
5 | COC(=O)C1Cc2c(OC)ccc(OC)c2C(O)C1C(=O)OC (configuration not stated) | > 100 | > 100 | > 100 | > 100 | > 100 | > 100 | > 100 | > 100 |  |  |  |  |  |  |  |  |  | 
6 | COc1ccc(-c2c(-c3ccccc3)c(C)c3ccccn23)cc1 | > 100 |  | > 100 | > 100 | > 100 | > 100 | > 100 | > 100 | > 100 |  |  |  |  |  |  |  |  | 
7 | O=C1C[C@@]23CCC4(CC2CCC[C@H]3O1)OCCO4 (some centres not stated) |  | > 100 | > 100 | > 100 | > 100 | > 100 | > 100 | > 100 | > 100 |  |  |  |  |  |  |  |  | 
8 | Cc1cc(N/N=C/c2nc(-c3ccc(Cl)cc3)oc2C)c2cc(Br)ccc2n1 | 3.49 | 28.2 | 3.61 | 17.7 | 26.6 | 23.6 | 21.9 |  | 18.3 | 1.8 | 3.7 | 1.1 | 4.13 | 12.4 | 6 | 10.1 | 5.84 | 
9 | COc1cc(C2c3cc4c(cc3OC(NNS(=O)(=O)c3ccc(C)cc3)C2C)OCO4)cc(OC)c1OC (configuration not stated) | > 79 | > 70.5 |  | > 49.1 | 6.86 | > 74.6 | > 100 | > 39.8 | > 70.6 |  |  |  |  |  |  |  |  | 
10 | CC(=O)C(C)C(=O)N1C(=O)N(C)C2(C)N(C)C(=O)NC12C (configuration not stated) | > 100 | > 100 |  | > 100 | > 100 | > 100 | > 100 | > 100 | > 100 |  |  |  |  |  |  |  |  | 
11 | Cc1cn(-c2cccc(NC(=O)c3ccc(C)c(Nc4nccc(-c5cccnc5)n4)c3)c2)cn1 | 3.6 | 9.58 | 4.17 | > 100 |  | 10 | 3.68 | 4.74 | 3.52 | 2.04 | 2.92 | 1.47 | 2.4 |  | 3.01 | 1.88 | 2.03 | 1.94
12 | CCC(C)C(N)C(=O)N/N=C\c1c2c(nc3ccccc13)-c1cc3c(c(=O)n1C2)COC(=O)[C@]3(O)CC (some centres not stated) | > 100 |  | > 45.1 | 0.69 | 1.37 | 0.401 | > 43.5 | 1.61 | > 64.5 |  |  |  |  |  |  |  |  | 
13 | Cn1c(=Nc2ccc(Cl)cc2)sc2ccccc21 | 98.1 | > 100 | > 100 | > 100 | > 100 | > 100 | > 100 |  | > 100 |  |  |  |  |  |  |  |  | 
14 | Cc1ccc2nc3n[nH]c(N)c3nc2c1 | > 100 | > 100 |  | > 100 | > 100 | > 100 | > 100 | > 100 | > 100 |  |  |  |  |  |  |  |  | 
15 | CC1(C)CC(=O)c2c(nc3c(ccc4ccccc43)c2-c2ccc(NC(=O)CCC(=O)Nc3ccc(-c4c5c(nc6c4ccc4ccccc46)CC(C)(C)CC5=O)cc3)cc2)C1 | > 100 | > 100 | > 100 | > 100 | > 100 |  | > 100 | > 100 | > 100 |  |  |  |  |  |  |  |  | 
16 | COc1ccc(-c2c(-c3ccc(OC)cc3)n3c(=O)n(C)c(=O)n23)cc1 | > 100 |  | > 100 | 97.7 | > 100 | > 100 |  | > 100 | > 100 |  |  |  |  |  |  |  |  | 
17 | Cc1ccc(S(=O)C[C@](NC(=O)OCc2ccccc2)(Sc2ccccc2)C(F)F)cc1 (some centres not stated) | 42.6 | 63.4 | > 100 | 31.3 | 34.4 | 36.4 | 63.9 |  | 36 |  |  |  |  |  |  |  |  | 
18 | Clc1ccc(-c2cc(-c3cc4cc(Br)ccc4nc3Cl)on2)cc1 |  | 28.6 | > 50 | > 50 | > 50 | 46.5 | > 50 | 43.8 | > 50 |  |  |  |  |  |  |  |  | 
19 | Nc1nccc(NCC2(CO)CC(OCc3ccccc3)C2)n1 (configuration not stated) |  |  | > 100 |  | > 100 | > 100 | > 100 | > 100 |  |  |  |  |  |  |  |  |  | 
20 | FC(F)(F)c1ccc2c(c1)nc1n2C(c2c(Cl)cccc2Cl)SC1 (configuration not stated) | 47 | 47.2 |  | 48.7 | 33.6 | 60.1 | 32.3 | 55.2 | 85.9 |  |  |  |  |  |  |  |  | 
21 | COc1ccc2cc(CNCCCCCCCCNCc3ccc4cc(OC)ccc4c3)ccc2c1 | 5.2 |  | 47.7 | 7.83 | 41.2 | > 100 | 10.1 | > 100 |  |  |  |  |  |  |  |  |  | 
22 | N=c1oc2ccccc2cc1-c1nc2ccccc2[nH]1 | 38.4 | > 100 | 82.6 | > 100 | > 100 |  | > 100 | > 100 | > 100 |  |  |  |  |  |  |  |  | 
23 | O=c1[nH]ncc2[nH]c3c4ccccc4ccc3c12 | > 100 | > 100 | > 100 |  | 84.1 |  | > 100 | 54.9 | > 100 |  |  |  |  |  |  |  |  | 
